Patent US5583221A, “Substituted fused and bridged bicyclic compounds as therapeutic agents” (Eli Lilly and Company, priority 1995, dated 1996)
Structures can show the parent of a compound that is named as a salt.

What was measured:
MCF-7 = test: growth inhibition of cultured tumor cells (MCF-7); format: cell-based; settings: Homo sapiens, MCF7, read-out: IC50 of Compounds in Cells, MCF-7
Protocol: (§1) To investigate the effect that Formula I compounds have on cell growth and activity, assays are performed such as to determine growth inhibition of cultured tumor cells and cultured keritinocytes, and neutrophil superoxide anion release by well known techniques.
(§2) Table 1 also includes data from testing in a cellular assay known as the "Bleb" assay. In the Bleb assay K562 cells, a human chronic myeloid leukemia cell line, are treated with compound and scored for the appearance of morphologic changes referred to as blebs on the cell surface. […] H. Osada et al., (1988) 41:7, 925.

K562 cells [1] = test: Bleb assay in K562 cells; format: cell-based; settings: Homo sapiens, blebs on the cell surface, read-out: IC50 of Compounds in Cells, BLEB
Protocol: as §2

NHEK = test: growth inhibition of cultured keritinocytes (NHEK); format: cell-based; settings: read-out: IC50 of Compounds in Cells, NHEK
Protocol: as §1, §2

[2] = tested on: phorbol ester-induced mouse ear edema; test: phorbol ester-induced mouse ear edema model; format: in vivo
Protocol: Formula I compounds also have been tested in vivo to determine their antiinflammatory activity. The model used for this testing is the well-known, widely accepted phorbol ester-induced mouse ear edema model wherein the efficacy of a test compound to reduce the edema induced by the phorbol ester is measured.

NEUTROPHILS = test: neutrophil superoxide anion release; format: cell-based; settings: read-out: IC50 of Compounds in Cells, NEUTROPHILS
Protocol: as §1, §2

[3] = water solubility noted during work-up; format: physicochemical; settings: observation during HPLC fraction work-up
Protocol: A solution of 8-exo-[4-(2-carbophenylmethoxy-6-phenylmethoxybenzoyl)-3,5-bis(phenylmethoxy)benzoyloxy]-9-endo-(4-phenylmethoxybenzamido)tricyclo[5.2.1.0 (2,6)]decane (0.33 g, 0.32 mmol) in 6:1 ethanol/ethyl acetate (35 mL) in a 500 mL Parr bottle was treated with trifluoroacetic acid (0.15 mL) and purged with nitrogen. Pearlman's catalyst (150 mg) was added, and the vessel was charged with hydrogen (50 psi) and shaken on a Parr apparatus for 18 h. The bottle was carefully evacuated of hydrogen and the solution was filtered through Celite®, then the filter cake was washed with ethanol, but not allowed to dry. The filtrate was concentrated in vacuo to a foamy yellow solid, which was dissolved in DMF (0.8 mL) and loaded onto HPLC; conditions: A- 0.1% TFA/5% CH3 CN/H2 O, B- CH3 CN, 100% A to 100% B over one h, 25 mL/min, 41×250 mm C18 column. […] (dec). Rf (2:1 methylene chloride/methanol on silica) 0.50; IR (KBr) 1703, 1635, 1608 cm^-1; ^1 H NMR (d6 -DMSO) d 11.66 (s, 2H), 9.97 (br s, 1H), 9.88 (s, 1H), 8.35 (d, 1H, J=7 Hz), 7.75 (d, 2H, J=9 Hz), 7.38 (d, 1H, J=8 Hz), 7.28 (t, 1H, J=8 Hz), 7.06 (d, 1H, J=8 Hz), 6.83 (s, 2H), 6.79 (d, 2H, J=9 Hz), 4.83 (d, 1H, J=2.5 Hz), 4.11 (m, 1H), 2.25 (d, 1H, J=4 Hz), 2.10-2.20 (m, 1H), 2.07 (br s, 2H), 1.60-2.00 (m, 3H), 1.48 (br s, 2H), 1.10-1.30 (m, 1H), 0.90-1.10 (m, 2H); mass spectrum (FAB): m/z 588. […]

K562 cells [4] = settings: previous studies, H. Osada et al. (1988); cited from earlier work

COC(=O)c1cccc(O)c1C(=O)c1c(O)cc(C(=O)O[C@@H]2Cc3ccccc3[C@H]2NC(=O)c2ccc(O)cc2)cc1O (relative stereo) [Example 5]
IC50 (MCF-7): 23 µM | IC50 (K562 cells [1]): 50 µM | IC50 (NHEK): 5 µM | antiinflammatory activity: reduction of edema induced by phorbol ester [2]: active

7-[4-(2-Methoxycarbonyl-6-hydroxybenzoyl)-3,5-dihydroxybenzoyloxy]-2-(hydroxybenzamido)bicyclo[2.2.1]heptane [Example 14]
IC50 (NEUTROPHILS): 10 µM

O=C(N[C@@H]1c2ccccc2C[C@@H]1OC(=O)c1cc(O)c(C(=O)c2c(O)cccc2C(=O)O)c(O)c1)c1ccc(O)cc1 (relative stereo) [Example 4, syn-(4-Hydroxybenzamido)-2-[3,5-dihydroxy-4-(2-carboxy-6-hydroxybenzoyl)benzoyloxy]indane]
IC50 (MCF-7): 2.1 to 4 µM | IC50 (NHEK): 43 µM

O=C(N[C@H]1[C@H]2CC[C@H](C2)[C@H]1OC(=O)c1cc(O)c(C(=O)c2c(O)cccc2C(=O)O)c(O)c1)c1ccc(O)cc1 (relative stereo) [Example 12, syn-2-[4-(2-Carboxy-6-hydroxybenzoyl)-3,5-dihydroxybenzoyloxy]-3-(4-hydroxybenzamido)bicyclo[2.2.1]heptane]
antiinflammatory activity: reduction of edema induced by phorbol ester [2]: active

O=C(NC1C2CC(C3CCCC32)C1OC(=O)c1cc(O)c(C(=O)c2c(O)cccc2C(=O)O)c(O)c1)c1ccc(O)cc1 (stereo not drawn) [Example 20, 8-exo-[4-(2-Carboxy-6-hydroxybenzoyl)-3,5-dihydroxybenzoyloxy]-9-endo-(4-hydroxybenzamido)tricyclo[5.2.1.0 (2,6)]decane]
water solubility [3]: not water-soluble

COC(=O)c1cccc(O)c1C(=O)c1c(O)cc(C(=O)O[C@@H]2C3CCN(CC3)C[C@H]2NC(=O)c2ccc(O)cc2)cc1O (relative stereo) [Example 8, anti-4-[4-(2-methoxycarbonyl-6-hydroxybenzoyl)-3,5-dihydroxybenzoyloxy]-3-(4-hydroxybenzamido)-1-azabicyclo[3.2.2]nonane, trifluoroacetic acid salt]
IC50 (MCF-7): 74 µM | IC50 (K562 cells [1]): 12.5 µM | IC50 (NHEK): 92 µM

CN[C@@H]1C[C@H]2O[C@@](C)([C@@H]1OC)n1c3ccccc3c3c4c(c5c6ccccc6n2c5c31)C(=O)NC4 [staurosporine]
phorbol ester-induced blebbing (K562 cells [4]): inhibits

O=C(N[C@@H]1c2ccccc2C[C@H]1OC(=O)c1cc(O)c(C(=O)c2c(O)cccc2C(=O)O)c(O)c1)c1ccc(O)cc1 (relative stereo) [Example 3, anti-1-(4-Hydroxybenzamido)-2-[3,5-dihydroxy-4-(2-carboxy-6-hydroxybenzoyl)benzoyloxy]indane]
IC50 (MCF-7): 71 µM | IC50 (NHEK): 50 µM | antiinflammatory activity: reduction of edema induced by phorbol ester [2]: active

O=C(NC1C2CCC(C2)C1OC(=O)c1cc(O)c(C(=O)c2c(O)cccc2C(=O)O)c(O)c1)c1ccc(O)cc1 (stereo not drawn) [Example 13, anti-2-[4-(2-Carboxy-6-hydroxybenzoyl)-3,5-dihydroxybenzoyloxy]-3-(4-hydroxybenzamido)bicyclo[2.2.1]heptane]
antiinflammatory activity: reduction of edema induced by phorbol ester [2]: active

COC(=O)c1cccc(O)c1C(=O)c1c(O)cc(C(=O)OC2C3CCC(C3)C2NC(=O)c2ccc(O)cc2)cc1O (stereo not drawn) [Example 16, anti-2-[4-(2-Methoxycarbonyl-6-hydroxybenzoyl)-3,5-dihydroxybenzoyloxy]-3-(4-hydroxybenzamido)bicyclo[2.2.1]heptane]
IC50 (K562 cells [1]): 25 µM | IC50 (NEUTROPHILS): 10 µM | antiinflammatory activity: reduction of edema induced by phorbol ester [2]: active

O=C(NC1C2CC(C3CCCC32)C1OC(=O)c1cc(O)c(C(=O)c2c(O)cccc2C(=O)O)c(O)c1)c1ccc(O)cc1 (stereo not drawn) [Example 21, 8-endo-[4-(2-Carboxy-6-hydroxybenzoyl)-3,5-dihydroxybenzoyl-oxy]-9-endo-(4-hydroxybenzamido)tricyclo[5.2.1.0 (2,6)]decane]
water solubility [3]: not water-soluble
